In ChEMBL document CHEMBL1144858, “3D-QSAR CoMFA studies on bis-coumarine analogues as urease inhibitors: a strategic design in anti-urease agents” (Bioorg Med Chem, 2008):

biological target: Urease (Canavalia ensiformis, UniProt P07374); experiment: Inhibition of jack bean urease
Sequence (P07374 whole entry): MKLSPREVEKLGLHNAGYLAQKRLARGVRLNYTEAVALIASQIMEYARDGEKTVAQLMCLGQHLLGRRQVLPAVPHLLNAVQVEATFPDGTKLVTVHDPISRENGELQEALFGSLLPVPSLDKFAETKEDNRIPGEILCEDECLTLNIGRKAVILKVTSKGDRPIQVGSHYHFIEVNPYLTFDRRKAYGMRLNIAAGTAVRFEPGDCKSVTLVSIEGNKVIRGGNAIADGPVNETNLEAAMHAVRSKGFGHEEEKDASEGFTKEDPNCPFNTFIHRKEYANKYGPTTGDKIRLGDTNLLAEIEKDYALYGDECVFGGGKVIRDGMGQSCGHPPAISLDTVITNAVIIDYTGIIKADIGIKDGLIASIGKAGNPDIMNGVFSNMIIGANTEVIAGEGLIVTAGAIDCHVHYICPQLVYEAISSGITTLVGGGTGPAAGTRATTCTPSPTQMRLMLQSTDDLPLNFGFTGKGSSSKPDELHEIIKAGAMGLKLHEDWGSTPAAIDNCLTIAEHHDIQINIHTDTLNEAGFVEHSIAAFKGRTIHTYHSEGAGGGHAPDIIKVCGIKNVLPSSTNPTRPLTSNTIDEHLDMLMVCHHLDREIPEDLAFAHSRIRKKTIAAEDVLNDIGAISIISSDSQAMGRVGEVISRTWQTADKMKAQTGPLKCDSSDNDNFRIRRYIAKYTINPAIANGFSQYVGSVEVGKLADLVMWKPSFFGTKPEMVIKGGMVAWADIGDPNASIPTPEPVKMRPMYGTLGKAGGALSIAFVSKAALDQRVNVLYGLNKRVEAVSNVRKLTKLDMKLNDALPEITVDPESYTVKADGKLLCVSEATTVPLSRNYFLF

| SMILES | IC50 [µM] |
| --- | --- |
| COc1cc(C(c2c(O)oc3ccccc3c2=O)c2c(O)oc3ccccc3c2=O)cc(OC)c1OC | 83.2 |
| CC(C)c1ccc(C(c2c(O)oc3ccccc3c2=O)c2c(O)oc3ccccc3c2=O)cc1 | 83.2 |
| COc1ccc(C(c2c(O)c3ccccc3oc2=O)c2c(O)c3ccccc3oc2=O)cc1 | 60.3 |
| O=c1oc2ccccc2c(O)c1C(c1c(O)c2ccccc2oc1=O)c1c[nH]c2ccccc12 | 61.7 |
| CCCCCC(c1c(O)c2ccccc2oc1=O)c1c(O)c2ccccc2oc1=O | 87.1 |
| O=c1oc2ccccc2c(O)c1C(c1ccncc1)c1c(O)c2ccccc2oc1=O | 58.9 |
| O=c1oc2ccccc2c(O)c1C(/C=C/c1ccccc1)c1c(O)c2ccccc2oc1=O | 60.3 |
| O=c1oc2ccccc2c(O)c1C(c1cccnc1)c1c(O)c2ccccc2oc1=O | 35.5 |
| O=c1oc2ccccc2c(O)c1C(c1ccccc1Cl)c1c(O)c2ccccc2oc1=O | 85.1 |
| CC(c1ccccc1)C(c1c(O)c2ccccc2oc1=O)c1c(O)c2ccccc2oc1=O (stereo not drawn) | 52.5 |
| CCOc1cc(C(c2c(O)c3ccccc3oc2=O)c2c(O)c3ccccc3oc2=O)ccc1O | 91.2 |
| O=c1oc2ccccc2c(O)c1C(c1ccc[nH]1)c1c(O)c2ccccc2oc1=O | 46.8 |
| CCCCC(c1c(O)c2ccccc2oc1=O)c1c(O)c2ccccc2oc1=O | 64.6 |
| O=c1oc2ccccc2c(O)c1C(CCc1ccccc1)c1c(O)c2ccccc2oc1=O | 67.6 |
| O=c1c(C(c2ccc(O)cc2)c2c(O)oc3ccccc3c2=O)c(O)oc2ccccc12 | 74.1 |
| COc1cccc(C(c2c(O)c3ccccc3oc2=O)c2c(O)c3ccccc3oc2=O)c1 | 56.2 |
| COc1ccccc1C(c1c(O)c2ccccc2oc1=O)c1c(O)c2ccccc2oc1=O | 83.2 |
| CC(c1c(O)c2ccccc2oc1=O)c1c(O)c2ccccc2oc1=O | 63.1 |
| CCCC(c1c(O)c2ccccc2oc1=O)c1c(O)c2ccccc2oc1=O | 67.6 |
| O=c1oc2ccccc2c(O)c1C(c1cccc(O)c1)c1c(O)c2ccccc2oc1=O | 72.4 |
| O=c1oc2ccccc2c(O)c1C(c1cccc([N+](=O)[O-])c1)c1c(O)c2ccccc2oc1=O | 81.3 |
| C/C=C/C(c1c(O)c2ccccc2oc1=O)c1c(O)c2ccccc2oc1=O | 43.7 |
| O=c1oc2ccccc2c(O)c1C(c1ccccc1Br)c1c(O)c2ccccc2oc1=O | 74.1 |
| COc1ccc(C(c2c(O)c3ccccc3oc2=O)c2c(O)c3ccccc3oc2=O)cc1OC | 79.4 |
| O=c1oc2ccccc2c(O)c1C(c1cccc(Cl)c1)c1c(O)c2ccccc2oc1=O | 74.1 |
| Nc1cccc(C(c2c(O)c3ccccc3oc2=O)c2c(O)c3ccccc3oc2=O)c1 | 75.9 |
| O=c1c(C(c2ccc([N+](=O)[O-])cc2)c2c(O)oc3ccccc3c2=O)c(O)oc2ccccc12 | 70.8 |
| O=c1oc2ccccc2c(O)c1Cc1c(O)c2ccccc2oc1=O [DICUMAROL] | 15.1 |
